Patent US20150265670A1, “AGENT FOR PREVENTING OR IMPROVING DECLINE IN BRAIN FUNCTION” (KYOWA HAKKO BIO CO., LTD., priority 2012, published 2015)

Legend:
[1] = tested on: bilateral common carotid arteries occlusion C57BL/6J mice; experiment: Passive avoidance test; format: in vivo; conditions: single agent, after 7 days administration; for latency time spent in the light compartment, memory behavior: high dose 100 mg/kg oral; for latency time spent in the light compartment: low dose 40 mg/kg oral, compared to Group 2
Protocol: (§1) Experimental Example: 10-week-old male C57BL/6J mice (CLEA Japan, Inc. approximately 25 g of average body weight per mouse) were preliminarily acclimated for 1 week, and provided for experiments. Citrulline and glutathione were obtained from KYOWA HAKKO BIO CO., LTD.
(§2) C57BL/6J mice were divided into a sham-operation group (Group 1) and a bilateral common carotid arteries occlusion group, which was performed under halothane anesthesia for 20 minutes. One day after reperfusion, the bilateral common carotid arteries occlusion group was further divided into a distilled water-treated group (Group 2), a low-dose citrulline-treated group (40 mg/kg: Group 3), a low-dose glutathione-treated group (40 mg/kg: Group 4), a high-dose citrulline-treated group (100 mg/kg: Group 5), a high-dose glutathione-treated group (100 mg/kg: Group 6), and a combination treatment group of a low dose of citrulline and a low dose of glutathione (each 40 mg/kg: Group 7). Each sample was orally administered for 12 days. One week after starting administration, learning memory-improving effects were examined by a Y-maze test, a passive avoidance test, and a novel object recognition test. After evaluating learning memory functions, the hippocampus was removed and viability of hippocampal nerve cells was evaluated.
The passive avoidance test was performed using a box consisting of dark (25×25×25 cm) and light compartments (14×10×25 cm) and being equipped with an electrical stimulation apparatus at the bottom of the dark compartment. During training, as soon as the mouse entered the dark compartment from the light compartment, the door was closed, and an electrical stimulation (0.3 mA, for 2 seconds) was delivered. Twenty four hours after training, the mouse was placed again in the light compartment, and the latency time spent in the light compartment was recorded with a maximum latency of 300 seconds.

[2] = tested on: bilateral common carotid arteries occlusion C57BL/6J mice; experiment: Y-maze test; format: in vivo; conditions: single agent, after 7 days administration; for spontaneous alternation behavior rate (Alternation), memory behavior: high dose 100 mg/kg oral; for spontaneous alternation behavior rate (Alternation): low dose 40 mg/kg oral, compared to distilled water group (Group 2)
Protocol: as §1, §2
In the Y-maze test, a Y-maze apparatus with three arms (50×16×32 cm) was used. Mice were placed at any one arm of the Y-maze and were allowed to explore freely through the maze for 8 minutes. The sequence of arm entries was recorded. The number of entries into each arm was counted during the measurement time, which was defined as the total number of entries. Of them, the successive entry into the three different arms was examined, and this number was defined as the spontaneous alternation behavior number. The spontaneous alternation behavior number was divided by (the total number of arm entries minus two), and then multiplied by 100, which was defined as the spontaneous alternation behavior rate (Alternation) and used as an index for spontaneous alternation behavior.

[3] = tested on: bilateral common carotid arteries occlusion C57BL/6J mice; experiment: Novel object recognition test; format: in vivo; conditions: single agent, after 7 days administration; for frequency of exploring the novel object, memory behavior: high dose 100 mg/kg oral; for frequency of exploring the novel object: low dose 40 mg/kg oral
Protocol: as §1, §2
The novel object recognition test was performed after mice were individually acclimated to the open field apparatus (35×25×35 cm) for 2 days. During training, mice were allowed to explore freely for 10 minutes in an apparatus where two identical objects were symmetrically placed. After 1 hour, one object was replaced by a novel object, and mice were allowed to explore freely for 5 minutes. Object exploration was defined as standing on the objects, touching the object with the nose, or sniffing the object within 1 cm from the object. A ratio of the frequency of exploring the familiar or novel object over the total exploration frequency was calculated, and used as an index for visual recognition memory.

[4] = tested on: hippocampal nerve cells (CA1 pyramidal cell layer); experiment: Evaluation of viability of hippocampal nerve cells; format: in vivo, mice; conditions: single agent, 12 days administration
Protocol: as §1, §2
Twelve days after bilateral occlusion of the common carotid arteries, mice were anesthetized with pentobarbital sodium, and perfused with ice-cold phosphate buffer (PBS, pH 7.4) until the blood in the body was completely removed. Immediately, mice were perfused with a fixative solution containing 4% paraformaldehyde. The brain tissues were fixed at 4° C. for 24 hours, and coronal sections having a thickness of 50 μm were prepared. Serial sections containing the hippocampus were stained with propidium iodide (PI, 5 μmol/L) dissolved in PBS and observed under a fluorescent microscope. Surviving and non-surviving nerve cells in the CA1 pyramidal cell layer of the hippocampus were counted at 1.4 to 1.8 mm posterior to bregma, and cells with PI-positive nuclei and typical morphological characteristics were defined as […]. The cell viability was calculated from a ratio to the average number of surviving nerve cells in Group 1.

[5] = low dose 40 mg/kg oral, compared to Group 2

Compound | latency time spent in the light compartment, memory behavior [1] | latency time spent in the light compartment [1] | spontaneous alternation behavior rate (Alternation), memory behavior [2] | spontaneous alternation behavior rate (Alternation) [2] | frequency of exploring the novel object, memory behavior [3] | frequency of exploring the novel object [3] | viability of hippocampal nerve cells ([4]; high dose 100 mg/kg oral) | viability of hippocampal nerve cells [4, 5]
N[C@@H](CCC(=O)N[C@@H](CS)C(=O)NCC(=O)O)C(=O)O [glutathione] | remarkably improved effect of memory behavior | cannot be improved | remarkably improved effect of memory behavior | cannot be improved | remarkably improved effect of memory behavior | cannot be increased | nerve cell-protecting effect | cannot be improved
NC(=O)NCCC[C@H](N)C(=O)O [citrulline] | remarkably improved effect of memory behavior | cannot be improved | remarkably improved effect of memory behavior | cannot be improved | remarkably improved effect of memory behavior | cannot be increased | nerve cell-protecting effect | cannot be improved
